# Counter-ions that a name gives are not always drawn.
# Target: T1, human HSL (Homo sapiens, UniProt Q05469)
# T1 construct: generate a full length human HSL ORF with a 3′-His6 tag; His6 (C); made in house; host or cells: High 5 insect cells (baculovirus, pFast-BAC)
# T1 sequence (Q05469 1-1076): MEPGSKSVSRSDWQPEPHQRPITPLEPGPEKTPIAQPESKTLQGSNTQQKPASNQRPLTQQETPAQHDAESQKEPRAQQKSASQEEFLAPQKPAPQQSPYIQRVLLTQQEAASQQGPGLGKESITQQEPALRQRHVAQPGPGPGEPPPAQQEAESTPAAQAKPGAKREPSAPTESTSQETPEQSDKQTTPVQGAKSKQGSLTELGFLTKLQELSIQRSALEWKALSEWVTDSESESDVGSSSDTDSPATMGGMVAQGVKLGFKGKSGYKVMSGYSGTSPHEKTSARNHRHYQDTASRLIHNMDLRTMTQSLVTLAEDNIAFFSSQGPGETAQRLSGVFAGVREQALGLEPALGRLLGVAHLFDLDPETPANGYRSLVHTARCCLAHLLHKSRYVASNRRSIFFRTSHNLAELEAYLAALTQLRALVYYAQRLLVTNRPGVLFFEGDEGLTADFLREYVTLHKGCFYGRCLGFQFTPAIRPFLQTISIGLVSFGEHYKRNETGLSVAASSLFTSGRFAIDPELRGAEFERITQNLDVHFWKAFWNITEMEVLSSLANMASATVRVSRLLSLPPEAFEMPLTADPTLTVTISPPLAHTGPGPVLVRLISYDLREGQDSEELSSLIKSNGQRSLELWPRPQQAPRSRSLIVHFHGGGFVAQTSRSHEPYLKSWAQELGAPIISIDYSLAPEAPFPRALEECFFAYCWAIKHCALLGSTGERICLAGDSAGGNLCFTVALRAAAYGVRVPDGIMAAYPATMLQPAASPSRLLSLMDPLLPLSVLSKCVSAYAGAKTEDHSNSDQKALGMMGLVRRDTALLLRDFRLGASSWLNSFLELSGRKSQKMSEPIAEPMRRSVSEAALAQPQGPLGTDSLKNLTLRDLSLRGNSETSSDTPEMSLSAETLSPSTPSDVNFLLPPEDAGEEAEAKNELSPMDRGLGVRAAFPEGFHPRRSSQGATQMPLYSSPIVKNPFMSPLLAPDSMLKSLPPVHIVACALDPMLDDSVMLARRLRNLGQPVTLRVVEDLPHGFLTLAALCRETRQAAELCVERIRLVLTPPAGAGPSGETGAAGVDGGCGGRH
# Assay: Human Hormone-Sensitive Lipase (HSL) enzyme inhibition assay (colorimetric, DMPT substrate)
# Type: biochemical
# Conditions: read-out: HSL hum IC50
# Procedure: Production of Human Full Length Hormone Sensitive Lipase-His^6
# 1) Cloning: cDNA was prepared from commercial human brain polyA+ RNA and used as a template in overlapping PCR to generate a full length human HSL ORF with a 3′-His6 tag. This full length insert was cloned into the pFast-BAC vector and the DNA-sequence of several single clones was verified. DNA from a correct full length clone with the 3′His6 tag was used to transform the E. coli strain DH10BAC. Resulting bacmid DNA was used to generate a titered baculovirus stock for protein generation. The sequence of the encoded HSL conforms to Swissprot entry Q05469, with the additional C-terminal His6-tag.
# 2) Protein purification: Culture: 5.5 L, High 5 cells expressing human full length HSL-His^6, 48 hr., containing 25 μM E-64. Cell count: […], 90% viable.
# Cells were thawed. On ice, cells were suspended in Base Buffer containing 10% glycerol, 25 mM Tris-Cl, 300 mM NaCl, 10 mM imidazole, 10 mM 2-mercaptoethanol, 2 μg pepstatin/ml, 2 μg leupeptin/ml, 2 μg antipain/ml, pH 8.0 at 4° C. in a final volume of 475 ml with 3.75×10^7 cells/ml. […] was done at 3×30 sec., Lubrol PX was added to 0.2% final concentration followed by stirring for 15 min. at 4° C. and centrifugation at 25 k×g, 60 min., 4° C. Soluble proteins were mixed with 60 ml of pre-washed and equilibrated Ni-NTA Agarose (Qiagen 30210) followed by tumbling end-over-end, 45 min., 4° C., centrifugation 1000 rpm 5 min and letting resin settle 5 min. Supernatant was removed, the resin washed in the centrifuge vessel using 5 volumes of Base Buffer containing 0.2% Lubrol PX. Centrifugation was done again, then the supernatant discarded. The resin was poured onto a 0.8 μm membrane in a disposable filter unit (Nalge 450-0080), and washed with 5 volumes of Base Buffer containing 0.2% Lubrol PX. It was then washed with 30 volumes of Base Buffer containing 60 mM imidazole pH 7.5 at 4° C. The protein was eluted with 5 volumes of 25 mM Tris-Cl, 300 mM NaCl, 200 mM imidazole, 10 mM 2-mercaptoethanol, pH 7.5 at 4° C. by tumbling resin with buffer end-over-end, 30 min., 4° C. The resin was captured on a 0.2 μm membrane disposable filter unit (Millipore SCGP U02 RE) and the elute collected in the reservoir. The elute was concentrated using a 30 k MWCO centrifugal filter device (Sartorius Vivascience Vivacell 100, VC1022), to 20 ml. It was then dialyzed overnight at 4° C., two times against 2 L of 10% glycerol, 25 mM Tris-Cl, 300 mM NaCl, 0.2 mM EDTA, 0.2 mM DTT, pH 7.5 at 4° C. The protein was filtered using a 0.22 μm disposable filter unit (Millipore SCGP00525). The protein concentration was calculated from absorbance at 280 nm, using 280=0.67 cm-1 mg-1. Yield was 235 mg, total. The protein was stored at −80° C. Human Hormone-Sensitive Lipase (HSL) enzyme inhibition assay:
# HSL enzyme activity was measured by a colorimetric assay using 2,3-dimercapto-1-propanol tributyrate (Aldrich, St. Louis, Mo.) as a substrate. Typically, 1.5 mM 2,3-dimercapto-1-propanol tributyrate (DMPT) in 100 mM MOPS, pH 7.2, 0.2 mg/ml fatty acid-free BSA was prepared by sonication at 4° C. to homogenous suspension. Test compounds (2 mM stock in DMSO) were diluted 3 fold in series in DMSO. Compound solutions were diluted 24 fold in 1.5 mM DMPT containing solution and 18 ul per well was added to 384-well microplates (Corning Costar). Twelve microliters per well of human HSL (15 ug/ml) was added and the reaction mixture was incubated at 37° C. for 20 minutes. Six microliters of 12 mM dithio-bis-(2-nitrobenzoic acid) (DTNB) in DMSO plus 1.2% SDS and 0.6% Triton X-100 were added and the mixture was incubated at room temperature for 15 minutes. Product production was monitored by reading absorbance at 405 nm on an Envision Reader (PerkinElmer Life and Analytical Sciences, Shelton, Conn.).
row,SMILES,IC50
1,"CCc1ccc(NC(=O)C2(N)CCN(Cc3ccccc3F)CC2)cc1 [Example 153, 4-Amino-1-(2-fluoro-benzyl)-piperidine-4-carboxylic acid (4-ethyl-phenyl)-amide]",170 nM
2,"CCc1ccc(NC(=O)C2(N)CCN(S(=O)(=O)c3c(Cl)cccc3Cl)CC2)cc1 [Example 150, 4-Amino-1-(2,6-dichloro-benzenesulfonyl)-piperidine-4-carboxylic acid (4-ethyl-phenyl)-amide]",240 nM
3,"CCCCc1ccc(S(=O)(=O)N2CCC(N)(C(=O)Nc3ccc(CC)cc3)CC2)cc1 [Example 141, 4-Amino-1-(4-butyl-benzenesulfonyl)-piperidine-4-carboxylic acid (4-ethyl-phenyl)-amide]",90 nM
4,"CCc1ccc(NC(=O)C2(N)CCN(S(=O)(=O)c3ccc(C(F)(F)F)cc3Cl)CC2)cc1 [Example 147, 4-Amino-1-(2-chloro-4-trifluoromethyl-benzenesulfonyl)-piperidine-4-carboxylic acid (4-ethyl-phenyl)-amide]",430 nM
5,"CC(C)(C)c1ccc(NC(=O)C2(O)CCN(C(=O)Nc3ccc(C(F)(F)F)cc3)CC2)cc1 [Example 15, 4-Hydroxy-piperidine-1,4-dicarboxylic acid 4-[(4-tert-butyl-phenyl)-amide] 1-[(4-trifluoromethyl-phenyl)-amide]]",410 nM
6,"CCc1ccc(NC(=O)C2(N)CCN(S(=O)(=O)c3ccccc3OC(F)(F)F)CC2)cc1 [Example 149, 4-Amino-1-(2-trifluoromethoxy-benzenesulfonyl)-piperidine-4-carboxylic acid (4-ethyl-phenyl)-amide]",50 nM
7,"CCc1ccc(NC(=O)C2(N)CCN(S(=O)(=O)c3ccc(OC)cc3)CC2)cc1 [Example 139, 4-Amino-1-(4-methoxy-benzenesulfonyl)-piperidine-4-carboxylic acid (4-ethyl-phenyl)-amide]",80 nM
8,"CC(C)c1ccc(NC(=O)C2(N)CCN(S(=O)(=O)c3ccc(C(F)(F)F)cc3Cl)CC2)cc1 [Example 131, 4-Amino-1-(2-chloro-4-trifluoromethyl-benzenesulfonyl)-piperidine-4-carboxylic acid (4-isopropyl-phenyl)-amide]",500 nM
9,"CCc1ccc(NC(=O)C2(N)CCN(S(=O)(=O)c3ccccc3)CC2)cc1 [Example 133, 4-Amino-1-benzenesulfonyl-piperidine-4-carboxylic acid (4-ethyl-phenyl)-amide]",90 nM
10,"Cc1ccc(S(=O)(=O)N2CCC(O)(C(=O)N(C)c3ccc(OC(F)(F)F)cc3)CC2)cc1 [Example 69, 4-Hydroxy-1-(toluene-4-sulfonyl)-piperidine-4-carboxylic acid methyl-(4-trifluoromethoxy-phenyl)-amide]",140 nM
11,"O=C(c1ccccc1Cl)N1CCC(O)(C(=O)Nc2ccc(OC(F)(F)F)cc2)CC1 [Example 56, 1-(2-Chloro-benzoyl)-4-hydroxy-piperidine-4-carboxylic acid (4-trifluoromethoxy-phenyl)-amide]",460 nM
12,"CN(C(=O)C1(O)CCN(S(=O)(=O)c2cccs2)CC1)c1ccc(OC(F)(F)F)cc1 [Example 66, 4-Hydroxy-1-(thiophene-2-sulfonyl)-piperidine-4-carboxylic acid methyl-(4-trifluoromethoxy-phenyl)-amide]",200 nM
13,"CCc1ccc(NC(=O)C2(N)CCN(S(=O)(=O)c3ccc(F)cc3Cl)CC2)cc1 [Example 146, 4-Amino-1-(2-chloro-4-fluoro-benzenesulfonyl)-piperidine-4-carboxylic acid (4-ethyl-phenyl)-amide]",120 nM
14,CC(C)(C)c1ccc(NC(=O)C2(O)CCN(Cc3ccccc3Cl)CC2)cc1 [Example 44],80 nM
15,"CC(C)(Oc1ccc(NC(=O)C2(N)CCN(S(=O)(=O)c3ccccc3Cl)CC2)cc1)C(F)(F)F [Example 102, 4-Amino-1-(2-chloro-benzenesulfonyl)-piperidine-4-carboxylic acid [4-(2,2,2-trifluoro-1,1-dimethyl-ethoxy)-phenyl]-amide]",180 nM
16,"CCc1ccc(NC(=O)C2(N)CCN(S(=O)(=O)c3ccccc3OC)CC2)cc1 [Example 137, 4-Amino-1-(2-methoxy-benzenesulfonyl)-piperidine-4-carboxylic acid (4-ethyl-phenyl)-amide]",140 nM
17,"CC(C)c1ccc(NC(=O)C2(N)CCN(Cc3ccccc3C(F)(F)F)CC2)cc1 [Example 114, 4-Amino-1-(2-trifluoromethyl-benzyl)-piperidine-4-carboxylic acid (4-isopropyl-phenyl)-amide; hydrochloride]",210 nM
18,"CC(C)c1ccc(NC(=O)C2(O)CCN(C(=O)CC(C)(C)C)CC2)cc1 [Example 4, 1-(3,3-Dimethyl-butyryl)-4-hydroxy-piperidine-4-carboxylic acid (4-isopropyl-phenyl)-amide]",720 nM
19,"CCc1ccc(NC(=O)C2(N)CCN(S(=O)(=O)c3ccc(CC)cc3)CC2)cc1 [Example 140, 4-Amino-1-(4-ethyl-benzenesulfonyl)-piperidine-4-carboxylic acid (4-ethyl-phenyl)-amide]",110 nM
20,"CC(C)c1ccc(NC(=O)C2(N)CCN(Cc3ccccc3OC(F)(F)F)CC2)cc1 [Example 113, 4-Amino-1-(2-trifluoromethoxy-benzyl)-piperidine-4-carboxylic acid (4-isopropyl-phenyl)-amide; hydrochloride]",80 nM
21,"CN(C(=O)C1(O)CCN(Cc2ccccc2Cl)CC1)c1ccc(OC(F)(F)F)cc1 [Example 71, 1-(2-Chloro-benzyl)-4-hydroxy-piperidine-4-carboxylic acid methyl-(4-trifluoromethoxy-phenyl)-amide]",40 nM

# From patent US8399676B2, “Piperidine derivatives” (Hoffman-La Roche Inc., priority 2009, dated 2013)
